Measurements reported in patent publication US9115127B2 (AMGEN INC., priority 2010, dated 2015).
pIC50: −log10 of the molar value. Counter-ions that a name gives are not always drawn.

Target: T1, wild-type human ALK (cytoplasmic domain, amino acids 1058-1620, N-terminal GST fusion) (Homo sapiens, UniProt Q9UM73)
T1 construct: The cytoplasmic domain (amino acids 1058-1620) of wild-type human ALK; GST (N); made in house; host or cells: SF9 insect cells
Assay: ALK Inhibition in Enzyme Assay (Lance TR-FRET kinase assay)
Assay type: biochemical
Outline: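 Purified enzyme phosphorylated a biotinylated peptide substrate for 90 minutes at room temperature. Reactions were stopped with 20 mM EDTA in 50 mM Tris (pH 7.5), 100 mM NaCl, 0.05% BSA, 0.1% Tween-20. Phosphopeptide was detected by TR-FRET with SA-APC and Eu-W1024 anti-phosphotyrosine antibody PT66, excitation 320 nm.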

T1 sequence (Q9UM73 1058-1620): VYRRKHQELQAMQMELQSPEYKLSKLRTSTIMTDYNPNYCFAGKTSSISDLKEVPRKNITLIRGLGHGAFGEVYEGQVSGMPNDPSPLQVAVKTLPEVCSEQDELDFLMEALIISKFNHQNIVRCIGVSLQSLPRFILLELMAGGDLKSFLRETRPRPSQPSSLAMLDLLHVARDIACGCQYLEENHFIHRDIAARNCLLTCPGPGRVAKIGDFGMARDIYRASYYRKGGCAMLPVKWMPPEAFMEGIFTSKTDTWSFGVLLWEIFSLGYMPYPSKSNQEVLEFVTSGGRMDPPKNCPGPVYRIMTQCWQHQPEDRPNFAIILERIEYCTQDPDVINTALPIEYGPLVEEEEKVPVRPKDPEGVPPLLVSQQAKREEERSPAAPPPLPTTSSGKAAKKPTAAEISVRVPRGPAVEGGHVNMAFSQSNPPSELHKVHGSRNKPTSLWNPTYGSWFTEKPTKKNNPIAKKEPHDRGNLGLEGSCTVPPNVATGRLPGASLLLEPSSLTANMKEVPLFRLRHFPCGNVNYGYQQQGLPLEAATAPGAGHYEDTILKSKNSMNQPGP

Row | Structure (SMILES) | pIC50
1 | CC(C)NC(=O)[C@H]1CC[C@@H](n2/c(=N/C(=O)c3ccc(F)cc3)[nH]c3cnc(O)cc32)CC1 [Example 162, (E)-4-Fluoro-N-(6-hydroxy-1-(cis-4-(isopropylcarbamoyl)cyclohexyl)-1H-imidazo[4,5-c]pyridin-2(3H)-ylidene)benzamide] | > 7.30
2 | CC(C)NC(=O)[C@H]1CC[C@@H](n2/c(=N/C(=O)c3ccc(F)cc3)[nH]c3cnc(NCCN4CCOCC4)cc32)CC1 [Example 163, (E)-4-Fluoro-N-(1-(cis-4-(isopropylcarbamoyl)cyclohexyl)-6-(2-morpholinoethylamino)-1H-imidazo[4,5-c]pyridin-2(3H)-ylidene)benzamide] | > 7.30
3 | CC(C)NC(=O)[C@H]1CC[C@@H](n2/c(=N/C(=O)c3ccc(F)cc3)[nH]c3cnc(OCCn4cncn4)cc32)CC1 [Example 164, (E)-N-(6-(2-(1H-1,2,4-Triazol-1-yl)ethoxy)-1-(cis-4-(isopropylcarbamoyl)cyclohexyl)-1H-imidazo[4,5-c]pyridin-2(3H)-ylidene)-4-fluorobenzamide] | > 7.30
4 | CC(C)NC(=O)[C@H]1CC[C@@H](n2/c(=N/C(=O)c3ccc(F)cc3)[nH]c3cnc(OCCCN4CCOCC4)cc32)CC1 [Example 165, (E)-4-Fluoro-N-(1-(cis-4-(isopropylcarbamoyl)cyclohexyl)-6-(3-morpholinopropoxy)-1H-imidazo[4,5-c]pyridin-2(3H)-ylidene)benzamide] | > 7.30
5 | CC(C)NC(=O)[C@H]1CC[C@@H](n2/c(=N/C(=O)c3ccc(F)cc3)[nH]c3cc(F)c(OCCN4CCOCC4)cc32)CC1 [Example 166, (E)-4-Fluoro-N-(5-fluoro-1-(cis-4-(isopropylcarbamoyl)cyclohexyl)-6-(2-morpholinoethoxy)-1H-benzo[d]imidazol-2(3H)-ylidene)benzamide] | > 7.30
6 | CC(C)NC(=O)[C@H]1CC[C@@H](n2/c(=N/C(=O)c3ccc(F)cc3)[nH]c3cnc(OC4CCN(CC(=O)OC(C)(C)C)CC4)cc32)CC1 [Example 167, tert-Butyl 2-(4-((E)-2-(4-fluorobenzoylimino)-1-(cis-4-(isopropylcarbamoyl)cyclohexyl)-2,3-dihydro-1H-imidazo[4,5-c]pyridin-6-yloxy)piperidin-1-yl)acetate] | > 7.30
7 | CC(C)NC(=O)[C@H]1CC[C@@H](n2/c(=N/C(=O)c3ccc(F)cc3)[nH]c3cnc(OC4CCN(CC(=O)O)CC4)cc32)CC1 [Example 168, 2-(4-((E)-2-(4-Fluorobenzoylimino)-1-(cis-4-(isopropylcarbamoyl)cyclohexyl)-2,3-dihydro-1H-imidazo[4,5-c]pyridin-6-yloxy)piperidin-1-yl)acetic acid hydrochloride] | > 7.30
8 | CC(C)NC(=O)[C@H]1CC[C@@H](n2/c(=N/C(=O)c3ccc(F)cc3)[nH]c3cnc(OC4CCN(C)CC4)cc32)CC1 [Example 169, (E)-4-Fluoro-N-(1-(cis-4-(isopropylcarbamoyl)cyclohexyl)-6-(1-methylpiperidin-4-yloxy)-1H-imidazo[4,5-c]pyridin-2(3H)-ylidene)benzamide] | > 7.30
9 | CC(C)NC(=O)[C@H]1CC[C@@H](n2/c(=N/C(=O)c3ccc(F)cc3)[nH]c3ccc(CO)cc32)CC1 [Example 170, (E)-4-Fluoro-N-(6-(hydroxymethyl)-1-(cis-4-(isopropylcarbamoyl)cyclohexyl)-1H-benzo[d]imidazol-2(3H)-ylidene)benzamide] | > 7.30
10 | CC(C)NC(=O)[C@H]1CC[C@@H](n2/c(=N/C(=O)c3ccc(F)cc3)[nH]c3ccc(CN4CCN(S(C)(=O)=O)CC4)cc32)CC1 [Example 172, (E)-4-Fluoro-N-(1-(cis-4-(isopropylcarbamoyl)cyclohexyl)-6-((4-(methylsulfonyl)piperazin-1-yl)methyl)-1H-benzo[d]imidazol-2(3H)-ylidene)benzamide] | > 7.30
11 | CC(C)NC(=O)[C@H]1CC[C@@H](n2/c(=N/C(=O)c3ccc(F)cc3)[nH]c3ccc(CN4CCN(CCO)CC4)cc32)CC1 [Example 173, (E)-4-Fluoro-N-(6-((4-(2-hydroxyethyl)piperazin-1-yl)methyl)-1-(cis-4-(isopropylcarbamoyl)cyclohexyl)-1H-benzo[d]imidazol-2(3H)-ylidene)benzamide] | > 7.30
12 | CC(C)NC(=O)[C@H]1CC[C@@H](n2/c(=N/C(=O)c3ccc(F)cc3)[nH]c3ccc(CN4CCCC(C(N)=O)C4)cc32)CC1 (stereo partly drawn) [Example 180, 1-(((E)-2-(4-Fluorobenzoylimino)-3-(cis-4-(isopropylcarbamoyl)-cyclohexyl)-2,3-dihydro-1H-benzo[d]imidazol-5-yl)methyl)piperidine-3-carboxamide] | > 7.30
13 | CC(C)NC(=O)[C@H]1CC[C@@H](n2/c(=N/C(=O)c3ccc(F)cc3)[nH]c3ccc(CN4CCC(S(=O)(=O)O)CC4)cc32)CC1 [Example 181, 1-(((E)-2-(4-Fluorobenzoylimino)-3-(cis-4-(isopropylcarbamoyl)-cyclohexyl)-2,3-dihydro-1H-benzo[d]imidazol-5-yl)methyl)piperidine-4-sulfonic acid] | > 7.30
14 | CC(C)NC(=O)[C@H]1CC[C@@H](n2/c(=N/C(=O)c3ccc(F)cc3)[nH]c3ccc(CN4CCC(C(=O)N5CCOCC5)CC4)cc32)CC1 [Example 182, (E)-4-Fluoro-N-(1-(cis-4-(isopropylcarbamoyl)cyclohexyl)-6-((4-(morpholine-4-carbonyl)piperidin-1-yl)methyl)-1H-benzo[d]imidazol-2(3H)-ylidene)benzamide] | > 7.30
15 | CC(C)NC(=O)[C@H]1CC[C@@H](n2/c(=N/C(=O)c3ccc(F)cc3)[nH]c3ccc(CN4CCC(C)(O)CC4)cc32)CC1 [Example 183, (E)-4-Fluoro-N-(6-((4-hydroxy-4-methylpiperidin-1-yl)methyl)-1-(cis-4-(isopropylcarbamoyl)cyclohexyl)-1H-benzo[d]imidazol-2(3H)-ylidene)benzamide] | > 7.30
16 | CC(C)NC(=O)[C@H]1CC[C@@H](n2/c(=N/C(=O)c3ccc(F)cc3)[nH]c3ccc(CN4CCN(CC(C)(C)O)CC4)cc32)CC1 [Example 185, (E)-4-Fluoro-N-(6-((4-(2-hydroxy-2-methylpropyl)piperazin-1-yl)methyl)-1-(cis-4-(isopropylcarbamoyl)cyclohexyl)-1H-benzo[d]imidazol-2(3H)-ylidene)benzamide] | > 7.30
17 | CC(C)NC(=O)[C@H]1CC[C@@H](n2/c(=N/C(=O)c3ccc(F)cc3)[nH]c3ccc(CN4CCC(C(O)C(F)(F)F)CC4)cc32)CC1 (stereo partly drawn) [Example 186, (E)-4-Fluoro-N-(1-(cis-4-(isopropylcarbamoyl)-cyclohexyl)-6-((4-(2,2,2-trifluoro-1-hydroxyethyl)piperidin-1-yl)methyl)-1H-benzo[d]imidazol-2(3H)-ylidene)benzamide] | > 7.30
18 | CC[N+](CC)(CC)Cc1ccc2[nH]/c(=N\C(=O)c3ccc(F)cc3)n([C@H]3CC[C@@H](C(=O)NC(C)C)CC3)c2c1 [Example 187, N,N-Diethyl-N-(((E)-2-(4-fluorobenzoylimino)-3-(cis-4-(isopropylcarbamoyl)cyclohexyl)-2,3-dihydro-1H-benzo[d]imidazol-5-yl)methyl)ethanaminium chloride] | > 7.30
